Assay results reported in PMC3527451, “A Pilot Randomized, Placebo Controlled, Double Blind Phase I Trial of the Novel SIRT1 Activator SRT2104 in Elderly Volunteers” (PLoS ONE, 2012).
Entries after “also recorded” stand apart in the source; their conditions may differ.

Columns and labels:
[1] = cited from earlier work
[2] = test system: elderly male and female volunteers; experiment: Safety and tolerability, treatment-emergent adverse events in elderly volunteers; type: in vivo, human; settings: for serum creatinine of one subject: 0.5 g/day cohort
Description: This was a phase I, single-center, double-blind, randomized, placebo-controlled, parallel-arm study to assess the safety, tolerability, pharmacokinetic and initial pharmacodynamic properties of SRT2104 (Sirtris Pharmaceuticals, Cambridge, MA, USA) administered for the first time to male and female elderly volunteers 60 to 80 years of age. Volunteers were enrolled between 01 Oct 2009 and 5 Feb 2010. Doses of 0.5 and 2.0 g or matching placebo were administered once daily for 28 consecutive days. The selection of the doses investigated in this study was based upon safety and pharmacokinetic data obtained from a previous clinical study involving SRT2104 [19]. Suitability of participants was defined on the basis of a medical history, physical examination, vital signs, electrocardiogram and laboratory measurements. Subjects were required to have normal fasting glucose levels (4.4 to 6.0 mmol/L) at screening and a body mass index of at least 18 kg/m^2 and no greater than 30 kg/m^2. […] Subjects were deemed ineligible if they participated in any clinical trial with an investigative medicinal product within the past three months prior to the first dose in the current study, had been exposed to more than three new chemical entities within 12 months of enrollment, or used other concomitant medications and herbal products in the previous 3 months that in the opinion of the investigator could interfere with the study procedures or compromise subject safety. Additional exclusions included: women of childbearing potential and non-sterile men, unless they agreed to use acceptable method of contraception; history of alcoholism or drug abuse (including a positive pre-study drug/alcohol test at screening); use of tobacco or nicotine products; history of complications when donating blood or known relative inaccessibility of veins for venipuncture; donation of blood within three months of enrolment; history of significant drug or other allergies. Participants were asked to maintain their usual level of physical activity for the duration of the study.
At every visit (including at screening and follow-up), blood and urine samples were collected for clinical laboratory assessments (general blood biochemistry, full blood count, coagulation parameters and urinalysis). On the same days, physical examination, vital signs (resting pulse rate, respiration rate, temperature, and blood pressure readings), pre- and post-dose 12-lead ECG and a review of adverse events (AE) and any medications received were also performed. Safety evaluations were based on the incidence, severity and type of AEs and clinically significant changes from baseline in physical examination findings, vital signs or clinical laboratory results.

[3] = 28 days continuous administration

For `Cc1nc(-c2cccnc2)sc1C(=O)Nc1ccccc1-c1cn2c(CN3CCOCC3)csc2n1` [SRT2104], the “effect of food on overall exposure” value ([1]; 0.5 and 2.0 g doses, standardized solid meal vs fasted state) is listed as “increase exposure levels; also recorded: increase in overall exposure”, the “effect of food on inter-subject variability in exposure” value ([1]; fed state vs fasted state) is listed as “substantial reduction in inter-subject variability” and the safety and tolerability ([2]; 0.5 and 2.0 g/day for 28 days) is listed as “generally safe and well tolerated”. For the same compound, the “Abdominal distension, number of subjects” value ([2]; 0.5 g/day (n = 8)) was 1, the “Abdominal distension, percent of subjects” value ([2]; 0.5 g/day (n = 8)) was “(13%)” and the “Abdominal pain lower, number of subjects” value ([2]; 0.5 g/day (n = 8)) was 1. For the same compound, the “Abdominal pain lower, percent of subjects” value ([2]; 0.5 g/day (n = 8)) was “(13%)”, the “Any adverse event, percent of subjects” value ([2]; 0.5 g/day (n = 8)) was “(100%)” and the “Application site haematoma, number of subjects” value ([2]; 0.5 g/day (n = 8)) was 1. The “Application site haematoma, percent of subjects” value ([2]; 0.5 g/day (n = 8)) was “(13%)”, the “Arthralgia, number of subjects” value ([2]; 0.5 g/day (n = 8)) was 1 and the “Arthralgia, percent of subjects” value ([2]; 0.5 g/day (n = 8)) was “(13%)”. For the same compound, the “Back pain, number of subjects” value ([2]; 0.5 g/day (n = 8)) was 1, the “Back pain, percent of subjects” value ([2]; 0.5 g/day (n = 8)) was “(13%)” and the “Blood creatinine increased, number of subjects” value ([2]; 0.5 g/day (n = 8)) was 1. The “Blood creatinine increased, percent of subjects” value ([2]; 0.5 g/day (n = 8)) was “(13%)”, the “Constipation, number of subjects” value ([2]; 0.5 g/day (n = 8)) was 0 and the “Cough, number of subjects” value ([2]; 0.5 g/day (n = 8)) was 0. The “Decreased Appetite, number of subjects” value ([2]; 0.5 g/day (n = 8)) was 1, the “Decreased Appetite, percent of subjects” value ([2]; 0.5 g/day (n = 8)) was “(13%)” and the “Diarrhoea, number of subjects” value ([2]; 0.5 g/day (n = 8)) was 1. The “Diarrhoea, percent of subjects” value ([2]; 0.5 g/day (n = 8)) was “(13%)”, the “Dizziness, number of subjects” value ([2]; 0.5 g/day (n = 8)) was 0 and the “Dry eye, number of subjects” value ([2]; 0.5 g/day (n = 8)) was 0. The “Dysphonia, number of subjects” value ([2]; 0.5 g/day (n = 8)) was 0, the “Epistaxis, number of subjects” value ([2]; 0.5 g/day (n = 8)) was 0 and the “Erythema, number of subjects” value ([2]; 0.5 g/day (n = 8)) was 1. The “Erythema, percent of subjects” value ([2]; 0.5 g/day (n = 8)) was “(13%)”, the “Eye pain, number of subjects” value ([2]; 0.5 g/day (n = 8)) was 0 and the “Fall, number of subjects” value ([2]; 0.5 g/day (n = 8)) was 0. The “Fatigue, number of subjects” value ([2]; 0.5 g/day (n = 8)) was 0, the “Headache, number of subjects” value ([2]; 0.5 g/day (n = 8)) was 5 and the “Headache, percent of subjects” value ([2]; 0.5 g/day (n = 8)) was “(63%)”. The “Insomnia, number of subjects” value ([2]; 0.5 g/day (n = 8)) was 1, the “Insomnia, percent of subjects” value ([2]; 0.5 g/day (n = 8)) was “(13%)” and the “Joint stiffness, number of subjects” value ([2]; 0.5 g/day (n = 8)) was 0. The “Lethargy, number of subjects” value ([2]; 0.5 g/day (n = 8)) was 1, the “Lethargy, percent of subjects” value ([2]; 0.5 g/day (n = 8)) was “(13%)” and the “Limb injury, number of subjects” value ([2]; 0.5 g/day (n = 8)) was 0. For the same compound, the “Mass, number of subjects” value ([2]; 0.5 g/day (n = 8)) was 0, the “Migraine, number of subjects” value ([2]; 0.5 g/day (n = 8)) was 1 and the “Migraine, percent of subjects” value ([2]; 0.5 g/day (n = 8)) was “(13%)”. For the same compound, the “Muscle spasms, number of subjects” value ([2]; 0.5 g/day (n = 8)) was 0, the “Muscular weakness, number of subjects” value ([2]; 0.5 g/day (n = 8)) was 0 and the “Nasopharyngitis, number of subjects” value ([2]; 0.5 g/day (n = 8)) was 1. For the same compound, the “Nasopharyngitis, percent of subjects” value ([2]; 0.5 g/day (n = 8)) was “(13%)”, the “Nausea, number of subjects” value ([2]; 0.5 g/day (n = 8)) was 1 and the “Nausea, percent of subjects” value ([2]; 0.5 g/day (n = 8)) was “(13%)”. For the same compound, the “Number of subjects experiencing any adverse event” value ([2]; 0.5 g/day (n = 8)) was 8, the “Palpitations, number of subjects” value ([2]; 0.5 g/day (n = 8)) was 1 and the “Palpitations, percent of subjects” value ([2]; 0.5 g/day (n = 8)) was “(13%)”. The “Procedural pain, number of subjects” value ([2]; 0.5 g/day (n = 8)) was 1, the “Procedural pain, percent of subjects” value ([2]; 0.5 g/day (n = 8)) was “(13%)” and the “Rash, number of subjects” value ([2]; 0.5 g/day (n = 8)) was 1. For the same compound, the “Rash, percent of subjects” value ([2]; 0.5 g/day (n = 8)) was “(13%)”, the “Sensation of heaviness, number of subjects” value ([2]; 0.5 g/day (n = 8)) was 1 and the “Sensation of heaviness, percent of subjects” value ([2]; 0.5 g/day (n = 8)) was “(13%)”. For the same compound, the “Sleep disorder, number of subjects” value ([2]; 0.5 g/day (n = 8)) was 1, the “Sleep disorder, percent of subjects” value ([2]; 0.5 g/day (n = 8)) was “(13%)” and the “Syncope vasovagal, number of subjects” value ([2]; 0.5 g/day (n = 8)) was 0. For the same compound, the “Tenderness, number of subjects” value ([2]; 0.5 g/day (n = 8)) was 0, the “Thermal burn, number of subjects” value ([2]; 0.5 g/day (n = 8)) was 0 and the “Urine output increased, number of subjects” value ([2]; 0.5 g/day (n = 8)) was 1. The “Urine output increased, percent of subjects” value ([2]; 0.5 g/day (n = 8)) was “(13%)”, the “Vomiting, number of subjects” value ([2]; 0.5 g/day (n = 8)) was 1 and the “Vomiting, percent of subjects” value ([2]; 0.5 g/day (n = 8)) was “(13%)”. For the same compound, the “serum creatinine of one subject” value ([2]; day 14 (drug stopped)) was 151 µmol/L, the “serum creatinine of one subject” value ([2]; day 21 (normalization, drug restarted)) was 126 µmol/L and the “serum creatinine of one subject” value ([2]; day 28 (relapse)) was 154 µmol/L. For the same compound, the “serum creatinine of one subject” value ([2]; end of study follow up visit) was 116 µmol/L, the “Abdominal distension, number of subjects” value ([2]; 2.0 g/day (n = 9)) was 0 and the “Abdominal pain lower, number of subjects” value ([2]; 2.0 g/day (n = 9)) was 0. The “Any adverse event, percent of subjects” value ([2]; 2.0 g/day (n = 9)) was “(100%)”, the “Application site haematoma, number of subjects” value ([2]; 2.0 g/day (n = 9)) was 1 and the “Application site haematoma, percent of subjects” value ([2]; 2.0 g/day (n = 9)) was “(11%)”. The “Arthralgia, number of subjects” value ([2]; 2.0 g/day (n = 9)) was 0, the “Back pain, number of subjects” value ([2]; 2.0 g/day (n = 9)) was 0 and the “Blood creatinine increased, number of subjects” value ([2]; 2.0 g/day (n = 9)) was 0. For the same compound, the “Constipation, number of subjects” value ([2]; 2.0 g/day (n = 9)) was 1, the “Constipation, percent of subjects” value ([2]; 2.0 g/day (n = 9)) was “(11%)” and the “Cough, number of subjects” value ([2]; 2.0 g/day (n = 9)) was 1. The “Cough, percent of subjects” value ([2]; 2.0 g/day (n = 9)) was “(11%)”, the “Decreased Appetite, number of subjects” value ([2]; 2.0 g/day (n = 9)) was 0 and the “Diarrhoea, number of subjects” value ([2]; 2.0 g/day (n = 9)) was 2. For the same compound, the “Diarrhoea, percent of subjects” value ([2]; 2.0 g/day (n = 9)) was “(22%)”, the “Dizziness, number of subjects” value ([2]; 2.0 g/day (n = 9)) was 1 and the “Dizziness, percent of subjects” value ([2]; 2.0 g/day (n = 9)) was “(11%)”. The “Dry eye, number of subjects” value ([2]; 2.0 g/day (n = 9)) was 0, the “Dysphonia, number of subjects” value ([2]; 2.0 g/day (n = 9)) was 1 and the “Dysphonia, percent of subjects” value ([2]; 2.0 g/day (n = 9)) was “(11%)”. For the same compound, the “Epistaxis, number of subjects” value ([2]; 2.0 g/day (n = 9)) was 0, the “Erythema, number of subjects” value ([2]; 2.0 g/day (n = 9)) was 0 and the “Eye pain, number of subjects” value ([2]; 2.0 g/day (n = 9)) was 0. For the same compound, the “Fall, number of subjects” value ([2]; 2.0 g/day (n = 9)) was 0, the “Fatigue, number of subjects” value ([2]; 2.0 g/day (n = 9)) was 0 and the “Headache, number of subjects” value ([2]; 2.0 g/day (n = 9)) was 1. For the same compound, the “Headache, percent of subjects” value ([2]; 2.0 g/day (n = 9)) was “(11%)”, the “Insomnia, number of subjects” value ([2]; 2.0 g/day (n = 9)) was 0 and the “Joint stiffness, number of subjects” value ([2]; 2.0 g/day (n = 9)) was 0. The “Lethargy, number of subjects” value ([2]; 2.0 g/day (n = 9)) was 0, the “Limb injury, number of subjects” value ([2]; 2.0 g/day (n = 9)) was 1 and the “Limb injury, percent of subjects” value ([2]; 2.0 g/day (n = 9)) was “(11%)”. The “Mass, number of subjects” value ([2]; 2.0 g/day (n = 9)) was 0, the “Migraine, number of subjects” value ([2]; 2.0 g/day (n = 9)) was 0 and the “Muscle spasms, number of subjects” value ([2]; 2.0 g/day (n = 9)) was 0. The “Muscular weakness, number of subjects” value ([2]; 2.0 g/day (n = 9)) was 0, the “Nasopharyngitis, number of subjects” value ([2]; 2.0 g/day (n = 9)) was 4 and the “Nasopharyngitis, percent of subjects” value ([2]; 2.0 g/day (n = 9)) was “(44%)”. For the same compound, the “Nausea, number of subjects” value ([2]; 2.0 g/day (n = 9)) was 0, the “Number of subjects experiencing any adverse event” value ([2]; 2.0 g/day (n = 9)) was 9 and the “Palpitations, number of subjects” value ([2]; 2.0 g/day (n = 9)) was 0. The “Procedural pain, number of subjects” value ([2]; 2.0 g/day (n = 9)) was 0, the “Rash, number of subjects” value ([2]; 2.0 g/day (n = 9)) was 0 and the “Sensation of heaviness, number of subjects” value ([2]; 2.0 g/day (n = 9)) was 0. For the same compound, the “Sleep disorder, number of subjects” value ([2]; 2.0 g/day (n = 9)) was 0, the “Syncope vasovagal, number of subjects” value ([2]; 2.0 g/day (n = 9)) was 1 and the “Syncope vasovagal, percent of subjects” value ([2]; 2.0 g/day (n = 9)) was “(11%)”. For the same compound, the “Tenderness, number of subjects” value ([2]; 2.0 g/day (n = 9)) was 0, the “Thermal burn, number of subjects” value ([2]; 2.0 g/day (n = 9)) was 1 and the “Thermal burn, percent of subjects” value ([2]; 2.0 g/day (n = 9)) was “(11%)”. The “Urine output increased, number of subjects” value ([2]; 2.0 g/day (n = 9)) was 0, the “Vomiting, number of subjects” value ([2]; 2.0 g/day (n = 9)) was 0 and the dose-limiting toxicities [2, 3] was “no dose-limiting toxicities”. For the same compound, the serious adverse events [2, 3] was “no serious adverse events”.
